Results published in patent US8063065B2, “Azaindazole compounds as CCR1 receptor antagonists” (Boehringer Ingelheim International GmbH, priority 2008, dated 2011).

Legend:
CCR1 [1] = target: T1, CCR1 (Homo sapiens, UniProt P32246); test: Method A: calcium flux in CCR1 transfected cells (Fluo-4 NW, FLIPR TETRA), block of the CCR1/MIP-1α interaction; format: cell-based; settings: Method A: Fluo-4 NW, MIP-1 alpha at EC80
T1 sequence (P32246 1-355): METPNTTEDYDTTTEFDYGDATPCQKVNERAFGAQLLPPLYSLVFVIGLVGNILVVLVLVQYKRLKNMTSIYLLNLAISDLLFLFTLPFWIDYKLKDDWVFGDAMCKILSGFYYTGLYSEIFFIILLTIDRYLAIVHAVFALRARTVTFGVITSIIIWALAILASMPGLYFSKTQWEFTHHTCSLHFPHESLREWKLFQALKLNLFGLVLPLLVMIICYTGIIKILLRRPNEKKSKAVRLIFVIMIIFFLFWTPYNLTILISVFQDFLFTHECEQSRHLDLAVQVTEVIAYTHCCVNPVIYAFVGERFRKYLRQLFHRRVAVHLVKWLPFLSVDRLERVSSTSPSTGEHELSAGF
How it was run: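 Non-adherent cells stably expressing recombinant CCR1 and G-alpha-16, Fluo-4 NW-loaded 1 h at room temperature, preincubated 1 h with compound (top 3,000 nM, 4-fold, 10 doses; 1% DMSO) in HBSS/20 mM HEPES pH 7.4. MIP-1 alpha added at EC80; intracellular calcium flux recorded on FLIPR TETRA.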

CCR1 [2] = target: T1, CCR1; test: Method B: calcium flux in CCR1 transfected cells (Calcium 4 dye, […] FDSS6000), block of the CCR1/MIP-1α interaction; format: cell-based; settings: Method B: Calcium 4 dye, MIP-1alpha at EC80
How it was run: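 Calcium flux on an FDSS6000 was triggered by MIP-1α at its EC80 in stably CCR1/G-alpha-16-expressing non-adherent cells. Before this, Calcium 4-loaded cells were preincubated with compound in HBSS, 20 mM HEPES pH 7.4, 1% DMSO: 30 min at 37 C plus 30 min at room temperature. Ten 4-fold doses began at 3,000 nM, with ±MIP-1α DMSO wells as controls.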

Compound | IC50 (CCR1 [1]) | IC50 (CCR1 [2])
C[C@H](NC(=O)c1cncc2c1cnn2-c1ccc(F)cc1)c1ccc(S(C)(=O)=O)nc1 [1-(4-Fluorophenyl)-1H-pyrazolo[3,4-c]pyridine-4-carboxylic acid [(S)-1-(6-methanesulfonyl-pyridin-3-yl)-ethyl]-amide] | 9 nM | 3 nM
C[C@H](O)CNS(=O)(=O)c1ccc(CNC(=O)c2cncc3c2cnn3-c2ccc(F)cc2)cc1 [1-(4-Fluorophenyl)-1H-pyrazolo[3,4-c]pyridine-4-carboxylic acid 4-((S)-2-hydroxy-propylsulfamoyl)-benzylamide] | 1 nM | 0.8 nM
C[C@H](NC(=O)c1cncc2c1cnn2-c1ccc(F)cc1)c1cncc(S(N)(=O)=O)c1 [1-(4-Fluorophenyl)-1H-pyrazolo[3,4-c]pyridine-4-carboxylic acid [(S)-1-(5-sulfamoyl-pyridin-3-yl)-ethyl]-amide] | 2 nM | 0.9 nM
CC[C@H](NC(=O)c1cncc2c1cnn2-c1ccc(F)cc1)c1cccnc1 [1-(4-Fluorophenyl)-1H-pyrazolo[3,4-c]pyridine-4-carboxylic acid ((S)-1-pyridin-3-yl-propyl)-amide] | 15 nM | 8 nM
C[C@@H](O)CNS(=O)(=O)c1ccc(CNC(=O)c2cncc3c2cnn3-c2ccc(F)cc2)cc1 [1-(4-Fluorophenyl)-1H-pyrazolo[3,4-c]pyridine-4-carboxylic acid 4-((R)-2-hydroxy-propylsulfamoyl)-benzylamide] | 2 nM | 1 nM
O=C(NCc1ccc(CS(=O)(=O)N2CCOCC2)cc1)c1cncc2c1cnn2-c1ccc(F)cc1 [1-(4-Fluorophenyl)-1H-pyrazolo[3,4-c]pyridine-4-carboxylic acid 4-(morpholine-4-sulfonylmethyl)-benzylamide] | 20 nM | 
O=C(NCc1ccc(S(=O)(=O)N2CCC(O)CC2)cc1)c1cncc2c1cnn2-c1ccc(F)cc1 [1-(4-Fluorophenyl)-1H-pyrazolo[3,4-c]pyridine-4-carboxylic acid 4-(4-hydroxy-piperidine-1-sulfonyl)-benzylamide] | 2 nM | 
CCC[C@H](NC(=O)c1cncc2c1cnn2-c1ccc(F)cc1)c1cncc(S(=O)(=O)NC)c1 [1-(4-Fluorophenyl)-1H-pyrazolo[3,4-c]pyridine-4-carboxylic acid [(S)-1-(5-methylsulfamoyl-pyridin-3-yl)-butyl]-amide] | 0.2 nM | 
COc1cc(CNC(=O)c2cncc3c2cnn3-c2ccc(F)cc2)ccn1 [1-(4-Fluorophenyl)-1H-pyrazolo[3,4-c]pyridine-4-carboxylic acid (2-methoxy-pyridin-4-ylmethyl)-amide] | 2 nM | 
C=CC[C@H](NC(=O)c1cncc2c1cnn2-c1ccc(F)cc1)c1ccnc(S(=O)(=O)CC)c1 [1-(4-Fluorophenyl)-1H-pyrazolo[3,4-c]pyridine-4-carboxylic acid [(S)-1-(2-ethanesulfonyl-pyridin-4-yl)-but-3-enyl]-amide] | 0.6 nM | 0.4 nM
COC(=O)CNS(=O)(=O)c1ccc(CNC(=O)c2cncc3c2cnn3-c2ccc(F)cc2)cc1 [[4-({[1-(4-Fluorophenyl)-1H-pyrazolo[3,4-c]pyridine-4-carbonyl]-amino}-methyl)-benzenesulfonylamino]-acetic acid methyl ester] | 3 nM | 

Continued by falling IC50 (CCR1 [1]), values first:

IC50 (CCR1 [1]) | IC50 (CCR1 [2]) | Compound
35 nM | 14 nM | CC[C@H](NC(=O)c1cncc2c1cnn2-c1ccc(F)cc1)c1cncc(S(=O)(=O)CCC(=O)O)c1 [3-[5-((S)-1-{[1-(4-Fluorophenyl)-1H-pyrazolo[3,4-c]pyridine-4-carbonyl]-amino}-propyl)-pyridine-3-sulfonyl]-propionic acid]
34 nM |  | CS(=O)(=O)c1ccc(CNC(=O)c2cncc3c2cnn3-c2ccc(Cl)cc2)cn1 [1-(4-Chlorophenyl)-1H-pyrazolo[3,4-c]pyridine-4-carboxylic acid (6-methanesulfonyl-pyridin-3-ylmethyl)-amide]
22 nM |  | CN(C)CCN(c1ccc(CNC(=O)c2cncc3c2cnn3-c2ccc(F)cc2)cn1)S(C)(=O)=O [1-(4-Fluorophenyl)-1H-pyrazolo[3,4-c]pyridine-4-carboxylic acid {6-[(2-dimethylamino-ethyl)-methanesulfonyl-amino]-pyridin-3-ylmethyl}-amide]
3 nM |  | CN(C)C1CCN(S(=O)(=O)c2ccc(CNC(=O)c3cncc4c3cnn4-c3ccc(F)cc3)cc2)CC1 [1-(4-Fluorophenyl)-1H-pyrazolo[3,4-c]pyridine-4-carboxylic acid 4-(4-dimethylamino-piperidine-1-sulfonyl)-benzylamide]
2 nM |  | C[C@H](CO)NS(=O)(=O)c1ccc(CNC(=O)c2cncc3c2cnn3-c2ccc(F)cc2)cc1 [1-(4-Fluorophenyl)-1H-pyrazolo[3,4-c]pyridine-4-carboxylic acid 4-((R)-2-hydroxy-1-methyl-ethylsulfamoyl)-benzylamide]
0.5 nM | 0.2 nM | CC[C@H](NC(=O)c1cncc2c1cnn2-c1ccc(F)cc1)c1cncc(S(C)(=O)=O)c1 [1-(4-Fluorophenyl)-1H-pyrazolo[3,4-c]pyridine-4-carboxylic acid [(S)-1-(5-methanesulfonyl-pyridin-3-yl)-propyl]-amide]
0.4 nM | 0.3 nM | CC[C@H](NC(=O)c1cncc2c1cnn2-c1ccc(F)cc1)c1cncc(S(=O)(=O)CC)c1 [1-(4-Fluorophenyl)-1H-pyrazolo[3,4-c]pyridine-4-carboxylic acid [(S)-1-(5-ethanesulfonyl-pyridin-3-yl)-propyl]-amide]
